Columns and labels:
[1] = target: T1, GluClβWT (GLC-2) homomeric receptor (Caenorhabditis elegans, UniProt Q17328); details: CHO cells, βWT alone, ref Degani-Katzav et al., cited from earlier work
T1 construct: entry codes of the full-length subunits used in this study; expressed in transfected cells; host or cells: CHO cells, transient transfection, pcDNA3.1
T1 sequence (Q17328 23-434): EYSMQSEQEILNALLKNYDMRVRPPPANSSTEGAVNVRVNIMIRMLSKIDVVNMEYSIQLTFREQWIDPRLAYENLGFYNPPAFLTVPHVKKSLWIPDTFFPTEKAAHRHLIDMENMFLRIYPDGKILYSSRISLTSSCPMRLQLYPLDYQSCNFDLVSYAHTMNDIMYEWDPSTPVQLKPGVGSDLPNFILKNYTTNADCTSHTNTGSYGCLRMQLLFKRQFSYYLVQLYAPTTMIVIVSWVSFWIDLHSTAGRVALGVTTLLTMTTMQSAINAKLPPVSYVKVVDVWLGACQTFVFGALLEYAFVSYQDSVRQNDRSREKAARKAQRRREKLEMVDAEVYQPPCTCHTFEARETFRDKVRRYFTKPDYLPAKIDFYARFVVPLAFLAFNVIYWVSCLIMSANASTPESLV

[2] = target: T2, GluClα[SSS→GSD]/βWT receptor (Caenorhabditis elegans, UniProt G5EBR3+Q17328, S236G/S238D); assay: Whole-cell patch clamp in CHO cells, GluClα[SSS→GSD]/βWT receptor; assay type: cell-based; details: +60 mV
T2 construct: entry codes of the full-length subunits used in this study; expressed in transfected cells; host or cells: CHO cells, transient co-transfection 1:1, pcDNA3.1
T2 sequence (G5EBR3 21-461 S236G/S238D, one chain of several): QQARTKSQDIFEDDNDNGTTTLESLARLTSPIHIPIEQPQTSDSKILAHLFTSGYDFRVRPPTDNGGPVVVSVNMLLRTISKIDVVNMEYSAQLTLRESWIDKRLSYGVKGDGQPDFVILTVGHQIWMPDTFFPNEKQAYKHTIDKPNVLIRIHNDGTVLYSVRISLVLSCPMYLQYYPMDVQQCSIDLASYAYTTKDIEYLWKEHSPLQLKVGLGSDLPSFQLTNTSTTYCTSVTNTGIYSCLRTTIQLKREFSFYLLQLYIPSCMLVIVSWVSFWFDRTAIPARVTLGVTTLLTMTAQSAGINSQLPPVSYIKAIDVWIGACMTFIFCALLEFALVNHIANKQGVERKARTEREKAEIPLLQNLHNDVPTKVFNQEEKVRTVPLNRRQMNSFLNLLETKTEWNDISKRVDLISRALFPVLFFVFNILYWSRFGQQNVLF
Procedure: (§1) Chinese hamster ovary (CHO) cells were cultured as previously (Bar-Lev et al., [2011]) in Dulbecco’s Modified Eagle Medium (DMEM) containing 10% fetal calf serum, 2 mM glutamax, 100 Units/ml penicillin G and 100 μg/ml streptomycin, and grown in 5% CO2 at 37°C under 90%–95% humidity. The cells were seeded on glass coverslips (13-mm diameter) placed in a 24-multiwell plate. […] For the expression of GluCl receptors, cells were transiently co-transfected with pcDNA3.1 plasmids containing the ORFs of interest using transit-LT1 transfection reagent (Mirus, Madison, WI, USA), according to the manufacturer’s protocol. The cDNAs encoding the C. elegans GluClα (GLC-1) or its mutated versions and the GluClβ (GLC-2) subunits (200–600 ng per well) were used at 1:1 ratio. The pIRES-CD8 plasmid (200 ng per well) was added to enable the visualization of the expressing cells by beads coated with anti-CD8 antibodies (Invitrogen). […]
(§2) Whole-cell patch clamp recordings were performed as described previously (Bar-Lev et al., [2011]) in CHO cells that were prepared as detailed above. […] The currents were measured with an Axopatch 200B patch-clamp amplifier (Molecular Devices, Sunnyvale, CA, USA) and a Digidata 1440A interface (Molecular Devices). […]

GluClαP192E/βWT receptor = target: T3, GluClαP192E/βWT receptor (Caenorhabditis elegans, UniProt G5EBR3+Q17328, P192E); assay: Whole-cell patch clamp in CHO cells, GluClαP192E/βWT receptor; assay type: cell-based; details: +60 mV
T3 construct: entry codes of the full-length subunits used in this study; expressed in transfected cells; host or cells: CHO cells, transient co-transfection 1:1, pcDNA3.1
T3 sequence (G5EBR3 21-461 P192E, one chain of several): as the sequence (G5EBR3 21-461 S236G/S238D, one chain of several) above, with P172E, G216S, D218S counted along it
Procedure: as §1, §2

GluClαY194R/βWT receptor = target: T4, GluClαY194R/βWT receptor (Caenorhabditis elegans, UniProt G5EBR3+Q17328, Y194R); assay: Whole-cell patch clamp in CHO cells, GluClαY194R/βWT receptor; assay type: cell-based; details: +60 mV
T4 construct: entry codes of the full-length subunits used in this study; expressed in transfected cells; host or cells: CHO cells, transient co-transfection 1:1, pcDNA3.1
T4 sequence (G5EBR3 21-461 Y194R, one chain of several): as the sequence (G5EBR3 21-461 S236G/S238D, one chain of several) above, with Y174R, G216S, D218S counted along it
Procedure: as §1, §2

GluClαP192Y/βWT receptor = target: T5, GluClαP192Y/βWT receptor (Caenorhabditis elegans, UniProt G5EBR3+Q17328, P192Y); assay: Whole-cell patch clamp in CHO cells, GluClαP192Y/βWT receptor; assay type: cell-based; details: +60 mV
T5 construct: entry codes of the full-length subunits used in this study; expressed in transfected cells; host or cells: CHO cells, transient co-transfection 1:1, pcDNA3.1
T5 sequence (G5EBR3 21-461 P192Y, one chain of several): as the sequence (G5EBR3 21-461 S236G/S238D, one chain of several) above, with P172Y, G216S, D218S counted along it
Procedure: as §1, §2

GluClαF276W/βWT receptor = target: T6, GluClαF276W/βWT receptor (Caenorhabditis elegans, UniProt G5EBR3+Q17328, F276W); assay: Whole-cell patch clamp in CHO cells, GluClαF276W/βWT receptor; assay type: cell-based; details: +60 mV
T6 construct: entry codes of the full-length subunits used in this study; expressed in transfected cells; host or cells: CHO cells, transient co-transfection 1:1, pcDNA3.1
T6 sequence (G5EBR3 21-461 F276W, one chain of several): as the sequence (G5EBR3 21-461 S236G/S238D, one chain of several) above, with G216S, D218S, F256W counted along it
Procedure: as §1, §2

GluClαF276A/βWT receptor = target: T7, GluClαF276A/βWT receptor (Caenorhabditis elegans, UniProt G5EBR3+Q17328, F276A); assay: Whole-cell patch clamp in CHO cells, GluClαF276A/βWT receptor; assay type: cell-based
T7 construct: entry codes of the full-length subunits used in this study; expressed in transfected cells; host or cells: CHO cells, transient co-transfection, pcDNA3.1 (X-tremeGENE HP for the IVM-EC50 experiments)
T7 sequence (G5EBR3 21-461 F276A, one chain of several): as the sequence (G5EBR3 21-461 S236G/S238D, one chain of several) above, with G216S, D218S, F256A counted along it
Procedure: (§3) Chinese hamster ovary (CHO) cells were cultured as previously (Bar-Lev et al., [2011]) in Dulbecco’s Modified Eagle Medium (DMEM) containing 10% fetal calf serum, 2 mM glutamax, 100 Units/ml penicillin G and 100 μg/ml streptomycin, and grown in 5% CO2 at 37°C under 90%–95% humidity. The cells were seeded on glass coverslips (13-mm diameter) placed in a 24-multiwell plate. […] For the expression of GluCl receptors, cells were transiently co-transfected with pcDNA3.1 plasmids containing the ORFs of interest using transit-LT1 transfection reagent (Mirus, Madison, WI, USA), according to the manufacturer’s protocol. The cDNAs encoding the C. elegans GluClα (GLC-1) or its mutated versions and the GluClβ (GLC-2) subunits (200–600 ng per well) were used at 1:1 ratio. The pIRES-CD8 plasmid (200 ng per well) was added to enable the visualization of the expressing cells by beads coated with anti-CD8 antibodies (Invitrogen). For high-level expression of the GluClαF276A/βWT mutant receptor in experiments assigned to determine its IVM-EC50, we used the X-tremeGENE HP DNA Transfection Reagent (Roche Life Science). Recordings were performed 72–96 h following the transfection.
(§4) Whole-cell patch clamp recordings were performed as described previously (Bar-Lev et al., [2011]) in CHO cells that were prepared as detailed above. The normal external solution (NES) contained (in millimolar): 140 NaCl, 2.8 KCl, 2 CaCl2, 2 MgCl2, 10 glucose and 10 HEPES, adjusted to pH 7.35 with NaOH (310 mOsm/L). The pipette solution contained (in millimolar): 130 KCl, 4 MgCl2, 4 Na2ATP, 1 EGTA and 10 HEPES, adjusted to pH 7.35 with KOH (290 mOsm/L). The osmolarity of these solutions was maintained by adding sucrose. The electrode resistance was 6–10 MΩ when filled with the pipette solution. External solutions were applied onto the cell by using the VC-77SP fast-step system (Warner Instruments, Hamden, CT, USA) combined with N2 pressure of 3–4 psi to produce laminar flow of the external solution onto the patched cell. All measurements were performed at room temperature. The currents were measured with an Axopatch 200B patch-clamp amplifier (Molecular Devices, Sunnyvale, CA, USA) and a Digidata 1440A interface (Molecular Devices). Acquisition of recording data was performed at 2.5 kHz and recordings were low-pass filtered at 1 kHz, through a four-pole Bessel filter. The pClamp 10 software (Molecular Devices) was used for data acquisition. […] Five-hundred milliseconds after the application started (which is also after the current reached to its peak at −60 mV), the voltage was stepped from −60 mV to −80 mV for 50 ms followed by a 250-ms-long voltage ramp ranging from −80 mV to +80 mV.
(§5) Dose-response curves were fitted to the data points by a nonlinear regression using the Hill Equation 1,

GluClαWT/βWT receptor [3] = target: T8, GluClαWT/βWT receptor (Caenorhabditis elegans, UniProt G5EBR3+Q17328); assay: Whole-cell patch clamp in CHO cells, GluClαWT/βWT receptor; assay type: cell-based
T8 construct: entry codes of the full-length subunits used in this study; expressed in transfected cells; host or cells: CHO cells, transient co-transfection 1:1, pcDNA3.1
T8 sequence (G5EBR3 21-461): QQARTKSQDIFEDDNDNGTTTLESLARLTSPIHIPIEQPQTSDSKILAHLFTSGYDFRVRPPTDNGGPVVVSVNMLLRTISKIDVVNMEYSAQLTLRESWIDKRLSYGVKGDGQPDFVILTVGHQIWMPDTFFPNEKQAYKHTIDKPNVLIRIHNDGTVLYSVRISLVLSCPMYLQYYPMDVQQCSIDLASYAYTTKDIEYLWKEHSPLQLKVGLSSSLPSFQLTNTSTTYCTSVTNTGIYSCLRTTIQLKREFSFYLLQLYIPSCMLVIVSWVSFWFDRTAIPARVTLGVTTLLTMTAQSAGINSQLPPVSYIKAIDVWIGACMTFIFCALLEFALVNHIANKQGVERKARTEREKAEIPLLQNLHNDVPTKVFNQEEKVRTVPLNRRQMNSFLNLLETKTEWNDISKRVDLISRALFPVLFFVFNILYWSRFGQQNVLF
T8 sequence (Q17328 23-434): T1 sequence (Q17328 23-434)
Procedure: as §3, §4, §5

GluClαWT/βWT receptor [4] = target: T8, GluClαWT/βWT receptor; design: method as in Degani-Katzav et al., [2016]; details: CHO cells co-transfected with WT α and β subunits; ref Degani-Katzav et al., [2016]; cited from earlier work
GluClαE273R/βWT receptor = target: T9, GluClαE273R/βWT receptor (Caenorhabditis elegans, UniProt G5EBR3+Q17328, E273R); assay: Whole-cell patch clamp in CHO cells, GluClαE273R/βWT receptor; assay type: cell-based; details: +60 mV
T9 construct: entry codes of the full-length subunits used in this study; expressed in transfected cells; host or cells: CHO cells, transient co-transfection 1:1, pcDNA3.1
T9 sequence (G5EBR3 21-461 E273R, one chain of several): as the sequence (G5EBR3 21-461 S236G/S238D, one chain of several) above, with G216S, D218S, E253R counted along it
Procedure: as §1, §2

[5] = target: T10, GluClαWT (GLC-1) homomeric receptor (Caenorhabditis elegans, UniProt G5EBR3); design: method as in Degani-Katzav et al., [2016]; details: CHO cells, αWT alone; ref Degani-Katzav et al., [2016]; cited from earlier work
T10 construct: entry codes of the full-length subunits used in this study; expressed in transfected cells; host or cells: CHO cells, transient transfection, pcDNA3.1
T10 sequence (G5EBR3 21-461): T8 sequence (G5EBR3 21-461)

GluClαP192M/βWT receptor = target: T11, GluClαP192M/βWT receptor (Caenorhabditis elegans, UniProt G5EBR3+Q17328, P192M); assay: Whole-cell patch clamp in CHO cells, GluClαP192M/βWT receptor; assay type: cell-based; details: +60 mV
T11 construct: entry codes of the full-length subunits used in this study; expressed in transfected cells; host or cells: CHO cells, transient co-transfection 1:1, pcDNA3.1
T11 sequence (G5EBR3 21-461 P192M, one chain of several): as the sequence (G5EBR3 21-461 S236G/S238D, one chain of several) above, with P172M, G216S, D218S counted along it
Procedure: as §1, §2

In the case of N[C@@H](CCC(=O)O)C(=O)O [Glu, glutamate], the “cells responding to 100 mM Glu” value ([1]; X-tremeGENE HP transfection, [2017]) is listed as 4 of 46, the “response to 10 mM Glu” value [1, 2016] is listed as “very weak, rare responses” and the “Glu activation properties nH (Hill coefficient)” value (“Glu activation properties nH” below) [2] is listed as 1.3 ± 0.1. For the same compound, the “Glu activation properties nH” value (GluClαP192E/βWT receptor) was 1.5 ± 0.1, the “Glu activation properties nH” value (GluClαY194R/βWT receptor) was 1.5 ± 0.1 and the “Glu activation properties nH” value (GluClαP192Y/βWT receptor) was 1.5 ± 0.1. For the same compound, the “Glu activation properties nH” value (GluClαF276W/βWT receptor) was 1.5 ± 0.1, the receptor population activated (GluClαF276A/βWT receptor; 1 mM Glu) was ~ 5% and the “Glu activation properties nH” value (GluClαF276A/βWT receptor; CHO cells, +60 mV) was 1.3 ± 0.1. For the same compound, the “Hill coefficient of activation by Glu after pre-exposure to IVM” value (GluClαF276A/βWT receptor; pre-exposure to 50 nM IVM) was 1.5 ± 0.03, the receptor population activated (GluClαWT/βWT receptor [3]; 0.3 mM Glu, calculated from the Glu dose-response curve) was ~ 7% and the “Glu activation properties nH” value (GluClαWT/βWT receptor [3]; CHO cells, +60 mV) was 1.6 ± 0.1. The “Hill coefficient of activation by Glu after pre-exposure to IVM” value (GluClαWT/βWT receptor [3]; pre-exposure to 7 nM IVM) was 1.2 ± 0.07, the “response to Glu” value (GluClαWT/βWT receptor [4]) was “robust responses” and the “Glu activation properties nH” value (GluClαE273R/βWT receptor) was 1.5 ± 0.1. For the same compound, the “response to 10 mM Glu” value [5] was “very weak responses” and the “Glu activation properties nH” value (GluClαP192M/βWT receptor) was 1.6 ± 0.1.
